According to patent US11541093B2, “Pharmacological use of Cimicifuga extract” (Max Zeller Soehne AG, priority 2012, dated 2023):

How the values were obtained:
male ob/ob mice [1] = experiment: Body weight in male ob/ob mice; format: in vivo
From the text: (§1) The effects of oral 7-day administration of a Cimicifuga racemosa extract prepared according to example 1 and designated Ze 450 on body weight, daily food and water intake as well as glucose control were investigated in male ob/ob mice as follows. The ob/ob mouse is a well-characterized and representative in-vivo model of obesity and diabetes in mammals, in particular humans, wherein both disorders are the result of a mutation in the ob gene which encodes leptin. In the study metformin was the positive control.
(§2) Body weight, food and water intake were measured daily from 6 days before dosing to 6 days after dosing started. Animals were fasted overnight on Day 6 for an oral glucose tolerance test (OGTT) on Day 7. The animals also had freely fed bleeds on Day −4 and Day 6. […]
(§3) All treatments were dosed orally by gavage […] once daily. During the treatment period food intake, water intake and body weight were recorded daily at the dosing session. After dosing the animals were examined and any overt behavior was recorded. […]
(§4) Body weights, food intake and water intake were expressed as mean values ±SEM. Body weight, body weight gain, daily and average food and water intake data and cumulative food intake were analyzed by ANCOVA with baseline as a covariate, followed by appropriate comparisons (two-tailed) to determine significant differences from the appropriate control group. […]

male ob/ob mice [2] = experiment: Daily water intake in male ob/ob mice; format: in vivo; conditions: metformin PO; p=0.002
From the text: as §1, §2, §3, §4

diabetic rats = conditions: intravenously at 5 and 10 mg/kg; cited from earlier work

Row | SMILES | effect on overall body weight (male ob/ob mice [1]; metformin 200 mg/kg PO, after 6 days of treatment) | cumulative body weight over the 6 treatment days (male ob/ob mice [1]; metformin PO, compared to its control group) | average weekly water intake (male ob/ob mice [2]) | plasma glucose levels (diabetic rats)
1 | CN(C)C(=N)N=C(N)N [metformin] | no significant effect | virtually no reduction | significant (p=0.002) reduction | –
2 | COc1ccc(/C=C/C(=O)O)cc1O [isoferulic acid] | – | – | – | will lower plasma glucose levels
